Values joined by “and” are separate entries in the source; they are usually repeats but may differ in a detail not shown here. Equal values may be shown once. Read-outs that look alike come from different tables or passages of the source.
Experiments:
[1] = system: Abca1 mRNA in intestine; assay: intestinal Abca1 mRNA induction in C57BL/6 mice (Emax model); format: in vivo, mouse; settings: for ED50: Mus musculus
Protocol: All procedures involving animals were conducted in accordance with accepted standards of good animal practice and approved by the respective local animal ethics committees (Gothenburg region Local Ethics Review Committee on Animal experiments and University of Virginia Animal Care and Use Committee). Male C57BL/6JOlaHsd mice were retrieved from Harlan Laboratories (Horst, The Netherlands) around 7 weeks of age. In the studies with BMS-852907, male 8-week C57BL/6J mice (Jackson Laboratories) were used. Mice were given ad libitum access to water and standard rodent chow during the studies.
Solid compounds were solubilized in PEG400/Ethanol/Solutol/Water solution (36.3/9.1/4.6/50%). Compounds were given daily by oral gavage, 5 ml kg^−1, at doses ranging from 0.1 to 100 μmol kg^−1 of body weight for 4 days. Animals were terminated 3 h after the last dose.
(§1) At termination, the whole-blood volume was drawn from isoflurane-anesthetized mice via an incision in the carotid artery into EDTA blood tubes (S-Monovette®, EDTA KE/1.3 mL, Sarstedt, Nümbrecht, Germany or BD Microtainers®, Benton, Dickinson and Company, Franklin Lakes, New Jersey, USA). Blood samples were placed on ice and centrifuged within an hour (15 min, 2500 × g, 4 °C or 5 min, 16000 × g, 4 °C). The plasma was then dispensed in separate tubes and kept at −80 °C for later analysis of compound concentration and TG levels. For the analysis of intestinal Abca1 transcript levels, a 3–5-mm long segment of the duodenum was excised and cleared from any gut contents. Tissues were instantly snap frozen in liquid nitrogen and stored at −80 °C.
Snap-frozen intestinal tissues were quickly disrupted in QIAzol® (Qiagen, Hilden, Germany) or PureZOL™ (Bio-Rad Laboratories, Hercules, California, USA) by using a bead tissue homogenizer. Lysates were mixed with chloroform and centrifuged at 6000 × g for 15 min at 4 °C. Total RNA was purified from the upper aqueous phase on the ABI PRISM™ 6100 Nucleic Acid PrepStation (Applied Biosystems, Foster City, USA) or by using the RNeasy kit® (QIAGEN Sciences Inc., Germantown, Maryland, USA) including on-column DNase treatment by using the respective manufacturer’s protocol and reagents. Concentration of total RNA was determined on a NanoDrop™ ND-100 Spectrophotometer (Saveen Werner, Lögstrup, Sweden). The RNA templates were transferred to cDNA by reverse transcription by using the High-Capacity cDNA Reverse Transcription Kit (Applied Biosystems, Foster City, USA) according to the manufacturer’s protocol. Mouse ATP-binding cassette subfamily A member 1 (Abca1) was analyzed by using the forward primer 5′-[…]-3′, reverse primer 5′-[…]-3′, and the dual-labeled probe 5′-6FAM-[…]-TAMRA-3′. Mouse ribosomal protein large P0 (Rplp0, 36b4) was analyzed by using the forward primer 5′-[…]-3′, reverse primer 5′-[…]-3′, and the FAM-labeled probe 5′-[…]-TAMRA-3′. In the study with BMS-852907, RT-qPCR reactions were carried out in separate triplicate wells for Abca1 and Rplp0, respectively, by using 20 ng of cDNA template, 385 nM of the above-mentioned primers, and iQ™ SYBR Green Supermix (Bio-Rad, Hercules, California, USA) on a Bio-Rad MyiQ instrument (Bio-Rad, Hercules, California, USA). In the other studies, 400 nM Abca1 forward and reverse primers, 200 nM Abca1 probe, 200 nM Rplp0 forward and reverse primers, and 100 nM Rplp0 probe were mixed with 15 ng of cDNA template and TaqMan™ Gene Expression Master Mix (Applied Biosystems, Foster City, USA). The RT-qPCR reactions were performed on a 7500 Real-time PCR system (Applied Biosystems, Foster City, USA). Cycle threshold values (Ct) were retrieved from the instrument software. Relative changes in mRNA expression were calculated by using the comparative cycle method (2^−ΔΔCt). […]

[2] = system: plasma triglycerides; assay: plasma TG induction in C57BL/6 mice vs plasma compound concentration (log-linear model); format: in vivo, mouse; settings: for TG induction in plasma Attributed class: mouse, in vivo; for TG induction in plasma m (scaling factor) / TG induction in plasma C2, drug concentration corresponding to a twofold increase in TG levels: (% RSE)
Protocol: Male C57BL/6JOlaHsd mice were retrieved from Harlan Laboratories (Horst, The Netherlands) around 7 weeks of age. […] Mice were given ad libitum access to water and standard rodent chow during the studies.
Compounds were given daily by oral gavage, 5 ml kg^−1, at doses ranging from 0.1 to 100 μmol kg^−1 of body weight for 4 days. Animals were terminated 3 h after the last dose.
as §1
Plasma triglyceride levels were analyzed by using the Triglycerides/Glycerol Blanked reagent kit (Roche Diagnostics GMBH, Mannheim, Germany). Samples were measured on an ABX Pentra 400 instrument (Horiba Medical, Irvine, California, USA) or Cobas Mira plus instrument (Roche Diagnostics Corporation, Indianapolis, USA). […] Absorbance was measured by using a Tecan Infinite M200 plate reader (Tecan Austria GmbH, Salzburg, Austria).
About 25 µL of plasma was precipitated with 150 µL of cold acetonitrile containing 0.2% formic acid. […] Sample analysis was performed by using a reversed-phase high-pressure liquid chromatography system coupled to a Quattro Ultima triple-quadrupole mass spectrometer (Waters, UK). A rapid 2-min 4–90% (vol/vol) acetonitrile (containing 0.2% formic acid) gradient was used for chromatographic separation.
To rank the compounds, the drug concentration (C2) needed to generate a twofold increase in plasma TG was estimated by rearranging Eq. (2):3 C2=exp^2fold−BL−1/m^1/γ

[3] = biological target: T1, LXRα (Homo sapiens, UniProt Q13133); assay: Gal4 one hybrid reporter gene (transactivation) assay in U2OS cells, LXRα; format: cell-based; settings: for EC50: U2OS cells, Gal4-LXRα LBD, read-out: LXRα transactivation pEC50 (converted); for Emax: U2OS, 40 h, read-out: LXRα transactivation Agonist efficacy, %
T1 construct: expression vectors pSG5-Gal4-LXRα LBD or pSG5-Gal4-LXRβ LBD; expressed in transfected cells; host or cells: U2OS osteosarcoma cells
T1 sequence (Q13133 209-447 limits assumed): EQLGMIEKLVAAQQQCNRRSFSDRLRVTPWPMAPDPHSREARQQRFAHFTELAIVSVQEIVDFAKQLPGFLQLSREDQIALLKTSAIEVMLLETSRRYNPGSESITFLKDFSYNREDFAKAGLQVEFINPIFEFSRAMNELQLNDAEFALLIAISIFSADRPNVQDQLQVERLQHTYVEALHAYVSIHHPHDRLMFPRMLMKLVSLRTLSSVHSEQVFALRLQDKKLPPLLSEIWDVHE
Protocol: Transactivation assays were performed in U2OS osteosarcoma cells (ATCC, USA). […] Ligands were added at ten different concentrations 2 h post transfection and the luciferase activity was measured after 40 h.

[4] = biological target: T2, LXRβ LBD (Homo sapiens, UniProt P55055); assay: biochemical
T2 sequence (P55055 215-460 limits assumed): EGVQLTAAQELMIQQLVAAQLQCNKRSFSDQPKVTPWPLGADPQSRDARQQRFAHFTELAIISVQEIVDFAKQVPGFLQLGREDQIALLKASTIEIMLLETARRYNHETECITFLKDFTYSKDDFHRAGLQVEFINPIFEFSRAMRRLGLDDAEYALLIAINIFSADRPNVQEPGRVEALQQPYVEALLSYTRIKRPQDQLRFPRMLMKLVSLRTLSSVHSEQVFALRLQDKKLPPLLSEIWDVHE
From the text: The compounds were run in triplicate (binding assay) or in quadruplicate (transactivation assay). Standard deviations are indicated for individual experiments run more than once.

[5] = po, read-out: Abca1 mRNA induction in intestine Attributed class
[6] = oral gavage daily for 4 days, C57BL/6 mice, (% RSE), read-out: Abca1 mRNA induction in intestine ED50
[7] = maximal activation compared with a reference full agonist, value (SD, n)
[8] = Receptor-binding affinity pKi LXRβ, value (SD, n independent experiments)
[9] = binding affinity to the LXRβ LBD

Row | Structure (SMILES) | class of intestinal Abca1 induction [1] | ED50 [1, 5] [µmol/kg] | ED50 [1, 6] [µmol/kg] | TG induction in plasma Attributed class [2] | EC50 ([3]; value (SD, n)) [nM] | Emax [3, 7] [%] | Ki [4, 8] [nM] | TG induction in plasma m (scaling factor) [2] | TG induction in plasma C2, drug concentration corresponding to a twofold increase in TG levels [2] | Ki [4, 9] [nM] | TG class [2] | agonist activity in the Gal4 reporter gene assay, LXRα [3] | Potency-based LXRα selectivity over LXRβ ([3]; Gal4 reporter gene assays) [fold] | trend in plasma TG levels ([2]; within the explored concentration range) | Ki [4] [nM] | LXRα transactivation Agonist efficacy, % [3, 7]
1 | O=C1C(Cc2ccccc2)=C(NCCCCc2ccccc2)C(=O)N1Cc1ccccc1 [AZ8] | low ABCA1 inducers | > 11.3 | 341 | Non-lipogenic | 1740 | 91.5 | 47.9 |  |  |  |  |  |  |  |  | 
2 | CN(C)C(=O)c1cnc(N2CC[C@@H](CNC3=C(c4ccccc4)S(=O)(=O)N(C(C)(C)C)C3=O)C2)c(Cl)c1 [AZ5] | low ABCA1 inducers | > 11.3 | 17.2 |  | 1070 | 60.5 | 77.6 |  |  |  |  |  |  |  |  | 
3 | CN(C)C(=O)c1cccc(CCCCNC2=C(c3ccccc3)S(=O)(=O)N(C(C)(C)C)C2=O)c1 [AZ1] | high ABCA1 | ≤ 11.3 | < 30 | Lipogenic | 110 | 102 | 2.51 | 3.88 (30) | 0.214 (58) μM | 2 |  |  |  |  |  | 
4 | CC(CCCc1cccc(S(N)(=O)=O)n1)NC1=C(c2ccccc2)S(=O)(=O)N(C(C)C)C1=O (stereo not drawn) [AZ2] |  | ≤ 11.3 | 9.64 |  | 77.6 | 111 | 3.72 | 9.28 (63) | 0.041 (120) μM |  |  |  |  |  |  | 
5 | CC(C)N1C(=O)C(NCCCCc2cccc(S(N)(=O)=O)n2)=C(c2ccccc2)S1(=O)=O [AZ3] |  | ≤ 11.3 | 1.49 |  | 813 | 142 | 17.4 | 0.897 (20) | 3.42 (38) μM | 4 |  |  |  |  |  | 
6 | CC(C)(C)N1C(=O)C(Cc2ccccc2)=C(NC2CCN(c3ncc(CC(=O)O)cc3Cl)CC2)C1=O [AZ7] | high ABCA1 | ≤ 11.3 | < 30 | Non-lipogenic | 1100 | 85.3 | 105 |  |  |  |  |  |  |  |  | 
7 | CC(C)(O)c1cn(-c2ccc(-c3cc(F)c(CO)c(S(C)(=O)=O)c3)cc2F)c(C(C)(C)c2c(Cl)cccc2Cl)n1 [BMS-852927] |  | ≤ 11.3 | 2.1 | Non-lipogenic |  |  | 2.63 | 0.066 (18) | 477 μM and 477 (35) μM | 3 | non-lipogenic | No signal was observed |  |  |  | 
8 | CC(C)(C)N1C(=O)C(NC2CCN(c3ncc(CC(=O)O)cc3Cl)CC2)=C(c2ccccc2)S1(=O)=O [AZ4] |  | ≤ 11.3 | 5.65 |  | 427 | 103 | 33.1 | 1.47 (28) | 1.35 (54) μM |  |  |  |  |  |  | 
9 | O=C(O)Cc1ccc(CNC(=O)[C@@H]2Cc3ccccc3N2S(=O)(=O)c2ccc(-c3ccccc3C(F)(F)F)cc2)cc1 [F1, reference compound] | high ABCA1 | ≤ 11.3 | < 30 | Lipogenic | 562 | 84 | 36.3 | 12.1 (38) | 0.025 (72) μM |  |  |  | 7 |  |  | 
10 | Fc1ccc(-c2c3cccc(C(F)(F)F)c3nn2Cc2ccc(F)cc2Cl)cc1 [LXR-623, reference compound] | low ABCA1 inducers | > 11.3 | 31.5 | Non-lipogenic | 2570 | 102 |  |  |  |  | non-lipogenic |  |  | no trends toward increased TG levels | 95.5 | 
11 | O=S(=O)(c1ccccc1)N(CC(F)(F)F)c1ccc(C(O)(C(F)(F)F)C(F)(F)F)cc1 [T0901317, reference compound] |  | ≤ 11.3 | 4.11 | Lipogenic |  |  |  | 0.784 (17) | 4.41 (33) μM |  |  |  |  |  |  | 100.8 (7.4, n = 4) %
12 | CC(C)N1C(=O)C(NC2CCN(c3ncc(CC(=O)O)cc3Cl)CC2)=C(c2ccccc2)S1(=O)=O [AZ6] | high ABCA1 inducers | ≤ 11.3 | 11.3 | Non-lipogenic | 1230 | 87.8 | 162 |  |  |  |  |  |  |  |  | 
